The values that follow come from ChEMBL document CHEMBL4619709, “Synthesis and in-vitro anti-cancer evaluations of multi-methoxylated asymmetrical diarylpentanoids as intrinsic apoptosis inducer against colorectal cancer” (Bioorg Med Chem Lett, 2020).

The subject of data set [1] is NCI-H508. Put plainly: Antiproliferative activity against human NCI-H508 cells assessed as reduction in cell viability after 72 hrs by MTT assay. Type of data set: functional, cell-based. As to conditions: NCI-H508, 72 h. For orientation: Formazan colour is commonly taken as a measure of viable cells.
In data set [2] the test system is T84. As to the kind of experiment: Antiproliferative activity against human T84 cells assessed as reduction in cell viability after 72 hrs by MTT assay. As to conditions: T84, 72 h. It is filed as functional, cell-based.
The subject of data set [3] is NHDF. Put plainly: Cytotoxicity against human NHDF cells assessed as reduction in cell viability. Type of data set: cell-based.
The subject of data set [4] is SW-620. As to the kind of experiment: Antiproliferative activity against human SW620 cells assessed as reduction in cell viability after 72 hrs by MTT assay. Type of data set: functional, cell-based. The conditions noted are these: SW-620, 72 h.
In data set [5] the test system is RKO. Put plainly: Antiproliferative activity against human RKO cells assessed as reduction in cell viability after 72 hrs by MTT assay. It is filed as functional, cell-based.
Data set [6] deals with LoVo. As to the kind of experiment: Antiproliferative activity against human LoVo cells assessed as reduction in cell viability after 72 hrs by MTT assay. It is filed as functional, cell-based.
The test system of data set [7] is HT-29. As to the kind of experiment: Antiproliferative activity against human HT-29 cells assessed as reduction in cell viability after 72 hrs by MTT assay. As to conditions: HT-29, 72 h. Type of data set: functional, cell-based.
The subject of data set [8] is HT-29. As to the kind of experiment: Antiproliferative activity against human HT-29 cells at 10 uM after 72 hrs by MTT assay. It is filed as functional, cell-based.
Data set [9] deals with RKO. Put plainly: Antiproliferative activity against human RKO cells at 10 uM after 72 hrs by MTT assay. Type of data set: functional, cell-based.
Data set [10] can be described thus: Therapeutic index, ratio of IC50 for human NHDF cells to IC50 for human SW620 cells after 72 hrs. It is filed as toxicity. The conditions noted are these: NHDF cells versus SW620 cells, read-out: Ratio IC50.
For data set [11], the system named is LoVo. Put plainly: Antiproliferative activity against human LoVo cells at 10 uM after 72 hrs by MTT assay. It is filed as functional, cell-based.
A short description of data set [12]: Therapeutic index, ratio of IC50 for human NHDF cells to IC50 for human HT-29 cells after 72 hrs. Type of data set: toxicity. As to conditions: NHDF cells versus HT-29 cells, read-out: Ratio IC50.
A short description of data set [13]: Therapeutic index, ratio of IC50 for human NHDF cells to IC50 for human T84 cells after 72 hrs. It is filed as toxicity. The conditions noted are these: NHDF cells versus T84 cells, read-out: Ratio IC50.
The nature of data set [14]: Therapeutic index, ratio of IC50 for human NHDF cells to IC50 for human NCI-H508 cells after 72 hrs. Type of data set: toxicity. As to conditions: NHDF cells versus NCI-H508 cells, read-out: Ratio IC50.
Data set [15] in a line: Therapeutic index, ratio of IC50 for human NHDF cells to IC50 for human LoVo cells after 72 hrs. As to conditions: NHDF cells versus LoVo cells, read-out: Ratio IC50. Type of data set: toxicity.
The nature of data set [16]: Therapeutic index, ratio of IC50 for human NHDF cells to IC50 for human RKO cells after 72 hrs. It is filed as toxicity. As to conditions: NHDF cells versus RKO cells, read-out: Ratio IC50.
Data set [17] relates to SW-620. As to the kind of experiment: Antiproliferative activity against human SW620 cells at 10 uM after 72 hrs by MTT assay. It is filed as functional, cell-based.
In data set [18] the test system is T84. As to the kind of experiment: Antiproliferative activity against human T84 cells at 10 uM after 72 hrs by MTT assay. Type of data set: functional, cell-based.
For data set [19], the system named is NCI-H508. Put plainly: Antiproliferative activity against human NCI-H508 cells at 10 uM after 72 hrs by MTT assay. Type of data set: functional, cell-based.

Calls of active or inactive are those of the source. The rule behind the calls is not given here.

As a reminder, the IC50 is the midpoint of a concentration-inhibition curve. On to `O=c1[nH]cc(F)c(=O)[nH]1` [FLUOROURACIL], for which the IC50 in data set [1] is 8.8 µM; in data set [2], over 10 µM; in data set [3], over 50 µM; in data set [4], over 10 µM; in [5], 2.9 µM; in data set [6], 2.7 µM. Moreover, the IC50 in data set [7] is over 10 µM.
Turning to `COc1cc(/C=C2\CCC/C(=C\c3ccc(F)c(F)c3)C2=O)cc(OC)c1OC`, the outcome in data set [8], in data set [9], in [11], in [17], in [18] and in [19] was Active. Besides, the IC50 in data set [1] was found to be 4 µM; in [2] it was 3.5 µM; in data set [3], 11.1 µM; in [4], 4.1 µM; in data set [5], 2.2 µM; in data set [6], 2.3 µM. The IC50 in data set [7] stood at 1.7 µM. The selectivity ratio at 72 h in [10], in [12], in [13], in data set [14], in [15] and in [16] was 2.7 to 6.5 throughout.
On to `COc1cc(/C=C2\CCC/C(=C\c3ccc(O)c(O)c3)C2=O)cc(OC)c1OC`, for which the result in [8], in data set [9], in data set [11], in data set [17], in [18] and in [19] was Active. Moreover, the IC50 in [1] was found to be 7 µM; in data set [2], 3.6 µM; in data set [3], 9 µM; in data set [4], 3.2 µM; in data set [5], 3.1 µM; in data set [6], 2.7 µM. The half-inhibitory concentration (IC50) in data set [7] worked out at 8.5 µM. For the same molecule, the selectivity ratio at 72 h in [10], in [12], in [13], in data set [14], in [15] and in data set [16] was 1.1 to 3.3 in each case.
As for `COc1cc(/C=C2\CCC/C(=C\c3ccccc3Br)C2=O)cc(OC)c1OC`, the outcome in data set [8], in data set [9], in data set [11], in data set [17], in data set [18] and in data set [19] was Active. For the same molecule, the IC50 in [1] turned out to be 2.7 µM; in [2], 4.2 µM; in data set [3], 12.4 µM; in data set [4], 3.3 µM; in data set [5], 2.5 µM; in data set [6], 2.8 µM. The concentration for half-maximal inhibition (IC50) in data set [7] was found to be 2.8 µM. Moreover, the selectivity ratio at 72 h in data set [10], in data set [12], in data set [13], in data set [14], in [15] and in data set [16] was 3 to 5 in each case.
Regarding `COc1cccc(/C=C2\CCC/C(=C\c3cc(OC)c(OC)c(OC)c3)C2=O)c1OC`, the outcome in [8], in data set [9], in data set [11], in data set [17], in data set [18] and in data set [19] was Active. Also, the IC50 amounted to 4.8 µM in data set [1]; 3.9 µM in data set [2]; 18.8 µM in data set [3]; 4.5 µM in data set [4]; 3.6 µM in data set [5]; 2.6 µM in data set [6]. The IC50 in data set [7] was determined as 3.2 µM. The selectivity ratio at 72 h in data set [10], in data set [12], in [13], in data set [14], in [15] and in [16] was 3.9 to 7.2 throughout.
Take `COc1ccc(/C=C2\CCC/C(=C\c3cc(OC)c(OC)c(OC)c3)C2=O)cc1OC`: the result in data set [8], in data set [9], in data set [11], in data set [17], in [18] and in data set [19] was Active. Besides, the IC50 amounted to 1.7 µM in data set [1]; 1.9 µM in data set [2]; 1.6 µM in data set [4]; 1.3 µM in data set [5]; 1.7 µM in data set [6]; 1.5 µM in [7]. Further, the selectivity ratio at 72 h in data set [10], in data set [12], in data set [13], in data set [14], in data set [15] and in data set [16] was 3.1 to 4.5 each time.
As to `COc1cc(/C=C2\CCC/C(=C\c3cccc(O)c3)C2=O)cc(OC)c1OC`, the result in [8], in [9], in data set [11], in [17], in data set [18] and in data set [19] was Active. In addition, the IC50 is 5.6 µM in data set [1]; 6.5 µM in [2]; 25.3 µM in data set [3]; over 10 µM in data set [4]; 6.5 µM in [5]; 4.8 µM in [6]. Also, in data set [7], the IC50 came to 7.6 µM. In addition, the selectivity ratio at 72 h in [10], in data set [12], in data set [13], in data set [14], in [15] and in data set [16] was 3.3 to 5.3 in each case.
With `COc1cc(/C=C2\CCC/C(=C\c3ccccc3F)C2=O)cc(OC)c1OC`, the result in data set [8], in data set [9], in data set [11], in data set [17], in data set [18] and in [19] was Active. Besides, the IC50 came out at 2 µM in data set [1]; 2.2 µM in data set [2]; 4 µM in data set [3]; 2.1 µM in data set [4]; 1.5 µM in [5]; 1.9 µM in [6]. The concentration for half-maximal inhibition (IC50) in data set [7] came out at 1.6 µM. Besides, the selectivity ratio at 72 h in data set [10], in data set [12], in [13], in [14], in [15] and in [16] was 1.8 to 2.7 in each case.
For the molecule `COc1ccccc1/C=C1\CCC/C(=C\c2cc(OC)c(OC)c(OC)c2)C1=O`, the result in data set [8], in [9], in data set [11], in data set [17], in data set [18] and in data set [19] was Active. Also, the IC50 in data set [1] stood at 2.2 µM; in data set [2], 2.1 µM; in data set [3], 7.9 µM; in [4], 2 µM; in [5], 1.2 µM; in data set [6] it was 1.1 µM. Further, the IC50 in data set [7] was 1.2 µM. Besides, the selectivity ratio at 72 h in data set [10], in data set [12], in data set [13], in [14], in data set [15] and in data set [16] was 3.6 to 7.2 each time.
